Source: patent US4024277A, “Phosphoro-aminosulfenyl derivatives of benzofuran carbamates” (priority 1975, dated 1977)

Legend:
plum curculio [1] = assay: Initial insecticidal activity, plum curculio; format: in vivo, Conotrachelus nenuphar (Herbst); details: Conotrachelus nenuphar, 48-hour exposure, read-out: % Kill, Plum Curculio
Description: (§1) a. Initial Insecticidal Activity
(§2) In this test, a candidate insecticide, in solution, is applied to either infested or uninfested plants or containers by spraying or dipping. (The preferred test procedure varies with insect species. The dipping method is better than the spraying method, and vice versa, for certain species of insects. Also some species are better adapted to the test by infesting after the chemical treatment rather than before.) Once the tests have been established, a 48-hour exposure period is observed before reading the tests. Insect species included in these tests are Mexican bean beetle (Epilachna varivestis Mulsant), pea aphid [Acyrthosiphon pisum (Harris)], southern armyworm [Spodoptera eridania (Cramer)], twospotted spider mite (Tetranychus urticae Koch), large milkweed bug [Oncopeltus fasciatus (Dallas)], plum curculio [Conotrachelus nenuphar (Herbst)], confused flour beetle (Tribolium confusum Jacquelin duVal) and granary weevil [Sitophilus granarius (Linnaeus)]. Test results are set forth in Table I. A control sample, comprising the solution without the candidate insecticide, is also included.

confused flour beetle = assay: Initial insecticidal activity, confused flour beetle; format: in vivo, Tribolium confusum Jacquelin duVal; details: Tribolium confusum, 48-hour exposure, read-out: % Kill, Confused Flour Beetle
Description: as §1, §2

southern armyworm = assay: Initial insecticidal activity, southern armyworm; format: in vivo, Spodoptera eridania (Cramer); details: Spodoptera eridania, 48-hour exposure, read-out: % Kill, Southern Armyworm
Description: as §1, §2

twospotted spider mite [2] = assay: Initial insecticidal activity, twospotted spider mite; format: in vivo, Tetranychus urticae Koch; details: Tetranychus urticae, 48-hour exposure, read-out: % Kill, Twospotted Spider Mite
Description: as §1, §2

plum curculio [3] = assay: Seven-day residual insecticidal activity, plum curculio; format: in vivo, Conotrachelus nenuphar (Herbst); details: Conotrachelus nenuphar, 48-hour exposure, read-out: % Kill, Plum Curculio
Description: (§3) b. Seven-Day Residual Insecticidal Activity
(§4) In this test, a candidate insecticide, in solution, is applied to uninfested plants or containers by dipping or spraying. A seven-day holding period is necessary before infestation. A 48-hour exposure period is observed before evaluation of the tests. The insect species used in this type of test are the same as those listed under initial activity.

pea aphid [4] = assay: Seven-day residual insecticidal activity, pea aphid; format: in vivo, Acyrthosiphon pisum (Harris); details: Acyrthosiphon pisum, 48-hour exposure, read-out: % Kill, Pea Aphid
Description: as §3, §4

twospotted spider mite [5] = assay: Seven-day residual insecticidal activity, twospotted spider mite; format: in vivo, Tetranychus urticae Koch; details: Tetranychus urticae, 48-hour exposure, read-out: % Kill, Twospotted Spider Mite
Description: as §3, §4

Mexican bean beetle = assay: Systemic insecticidal activity (soil/water), Mexican bean beetle; format: in vivo, Epilachna varivestis Mulsant; details: Epilachna varivestis, 48-hour exposure, read-out: % Kill, Mexican Bean Beetle
Protocol: (§5) c. Systemic Insecticidal Acitivity (Soil/Water)
(§6) In this test, a candidate insecticide, in solution, is added to the soil of either uninfested pinto bean seedlings (Phaseolus vulgaris) or uninfested broad bean seedlings (Vicia faba var. Windsor). The plant species used depend on the insect species in the test. Usually, a 72-hour translocation period before infestation is required, followed by a 48-hour exposure period, before evaluation of the tests. The insect species used in the systemic tests are Mexican bean beetle, southern armyworm, pea aphid, and twospotted spider mite.

pea aphid [6] = assay: Systemic insecticidal activity (soil/water), pea aphid; format: in vivo, Acyrthosiphon pisum (Harris); details: Acyrthosiphon pisum, 48-hour exposure, read-out: % Kill, Pea Aphid
Protocol: as §5, §6

twospotted spider mite [7] = assay: Ovicidal activity against the twospotted spider mite; format: in vivo, Tetranychus urticae Koch; details: Tetranychus urticae, eggs, 7 to 10 days, read-out: % Kill (ovicidal)
Protocol: d. Ovicidal Activity Against the Twospotted Spider Mite
In this test, Pinto bean seedlings are infested with female twospotted spider mites; about 3-4 hours are allowed for egg deposition. Plants are then dipped in TEPP (tetraethylpyrophosphate-commercial emulsifiable concentrate (EC)) solution containing 936 ppm of active ingredient. TEPP kills motile forms on the leaf and promptly degrades without effecting the egg stage. Two to three hours after TEPP treatment the plants are again dipped -- this time into a candidate insecticide solution. The test plants are maintained for 7 to 10 days. Termination of exposure is determined by the time required to attain complete hatch in the untreated check.

house flies = assay: Level I immersion test, house flies; format: in vivo, Musca domestica Linnaeus; details: HF, 5 mg/milliliter; for % Knockdown: 10 minutes after immersion; for mortality at 5000 µg/mL: Musca domestica, after 18-24 hours, read-out: % Kill
Protocol: (§7) e. Insecticidal Activity Against House Flies and German Cockroaches
(§8) Compounds of this invention were tested in a Level I test at 5 mg. of active compounds/milliliter of a solution of 40% acetone -- 60% water.
(§9) In this test a group of ten house flies (Musca domestica Linnaeus) were completely immersed in 25 ml. of the insecticidal test solution. After 10 seconds of immersion, the test solution is removed. The house flies are then transferred to holding cages lines with paper toweling. In the case of the house flies, the knockdown counts were recorded 10 minutes after termination of the immersion. The percent kill was recorded after 18-24 hours.

German cockroaches [8] = assay: Level I immersion test, German cockroaches; format: in vivo, Blattella germanica (Linnaeus); details: GC (male), 5 mg/milliliter; for mortality at 5000 µg/mL: Blattella germanica, 18-24 hours, read-out: % Kill; for % Knockdown: 30 minutes after immersion
Protocol: as §7, §8, §9
The same Level I test technique was employed using male German cockroaches [Blattella germanica (Linnaeus)]. In this case, the knockdown counts were recorded 30 minutes after the termination of the immersion.

[9] = tested on: female house flies (resistant); assay: Level II topical test, house flies; format: in vivo, Musca domestica Linnaeus; details: HF (female, resistant), one microgram topically per insect; for % Knockdown: 10 minutes; for mortality at 0.001 mg: Musca domestica, topical, read-out: % Kill
Protocol: as §7
(§10) In a Level II test the compounds of this invention were tested for insecticidal activity against female house flies (resistant) and male German cockroaches. Ten insects were anesthetized with carbon dioxide and placed in a container for about 2 hours, during which time the insects recovered to normal activity. The container confining the insects is fitted with a plunger which is used to force the insects against a nylon mesh at one end of the container. One microliter of an acetone solution containing one microgram of the candidate insecticide was applied topically to each insect. The plunger was withdrawn and the insects were allowed to move freely about the container. Knockdown counts were recorded 10 minutes after treatment of house flies and 30 minutes after treatment of cockroaches.

German cockroaches [10] = assay: Level II topical test, German cockroaches; format: in vivo, Blattella germanica (Linnaeus); details: GC (male), one microgram topically per insect; for mortality at 0.001 mg: Blattella germanica, topical, read-out: % Kill; for % Knockdown: 30 minutes
Protocol: as §7, §10

Row | Compound | mortality at 39 ppm (plum curculio [1]) [%] | mortality at 156 ppm (plum curculio [1]) [%] | mortality at 1250 ppm (plum curculio [1]) [%] | mortality at 39 ppm (confused flour beetle) [%] | mortality at 156 ppm (confused flour beetle) [%] | mortality at 1250 ppm (confused flour beetle) [%] | mortality at 39 ppm (southern armyworm) [%] | mortality at 156 ppm (southern armyworm) [%] | mortality at 1250 ppm (southern armyworm) [%] | mortality at 39 ppm (twospotted spider mite [2]) [%] | mortality at 156 ppm (twospotted spider mite [2]) [%] | mortality at 1250 ppm (twospotted spider mite [2]) [%] | mortality at 39 ppm (plum curculio [3]) [%] | mortality at 156 ppm (plum curculio [3]) [%] | mortality at 1250 ppm (plum curculio [3]) [%] | mortality at 39 ppm (pea aphid [4]) [%] | mortality at 156 ppm (pea aphid [4]) [%] | mortality at 1250 ppm (pea aphid [4]) [%] | mortality at 39 ppm (twospotted spider mite [5]) [%] | mortality at 156 ppm (twospotted spider mite [5]) [%] | other results
1 | CCCOP(=O)(OCCC)N(C)SN(C)C(=O)Oc1cccc2c1OC(C)(C)C2 [2(d), 2,3-dihydro-2,2-dimethyl-7-benzofuranyl [(N-di-n-propoxyphosphinyl) (N-methyl)aminosulfenyl][methyl]carbamate] | 0 | 20 | 100 | 0 | 2 | 72 | 0 | 54 | 100 | 39 | 91 | 100 | 0 | 5 | 86 | 0 | 0 | 56 | 0 | 0 | mortality at 1250 ppm (twospotted spider mite [5]): 1%; mortality at 10 ppm (Mexican bean beetle; 10 ppm): 20%; mortality at 39 ppm (Mexican bean beetle): 85%; mortality at 156 ppm (Mexican bean beetle): 100%; mortality at 10 ppm (pea aphid [6]; 10 ppm): 0%; mortality at 39 ppm (pea aphid [6]): 11%; mortality at 156 ppm (pea aphid [6]): 80%; mortality at 156 ppm (twospotted spider mite [7]): 2%; mortality at 1250 ppm (twospotted spider mite [7]): 80%; % Knockdown (house flies): 100%; mortality at 5000 µg/mL (house flies): 100%; mortality at 5000 µg/mL (German cockroaches [8]): 100%; % Knockdown (German cockroaches [8]): 100%; % Knockdown [9]: 0%; mortality at 0.001 mg [9]: 40%; mortality at 0.001 mg (German cockroaches [10]): 10%; % Knockdown (German cockroaches [10]): 0%
2 | CCOP(=O)(OCC)N(C)SN(C)C(=O)Oc1cccc2c1OC(C)(C)C2 [Example 1(c), 2,3-dihydro-2,2-dimethyl-7-benzofuranyl [(N-diethoxyphosphinyl) (N-methyl)-aminosulfenyl][methyl]carbamate] | 0 | 15 | 100 | 14 | 15 | 33 | 6 | 20 | 95 | 21 | 37 | 100 | 0 | 22 | 85 | 0 | 0 | 100 | 2 | 1 | mortality at 1250 ppm (twospotted spider mite [5]): 9%; mortality at 39 ppm (Mexican bean beetle): 100%; mortality at 156 ppm (Mexican bean beetle): 95%; mortality at 39 ppm (pea aphid [6]): 100%; mortality at 156 ppm (pea aphid [6]): 100%; mortality at 39 ppm (twospotted spider mite [7]; 39 ppm): 0%; mortality at 156 ppm (twospotted spider mite [7]): 0%; mortality at 1250 ppm (twospotted spider mite [7]): 72%; % Knockdown (house flies): 100%; mortality at 5000 µg/mL (house flies): 100%; mortality at 5000 µg/mL (German cockroaches [8]): 100%; % Knockdown (German cockroaches [8]): 100%; % Knockdown [9]: 0%; mortality at 0.001 mg [9]: 20%; mortality at 0.001 mg (German cockroaches [10]): 0%; % Knockdown (German cockroaches [10]): 0%
3 | CCOP(=O)(OCC)N(CC)SN(C)C(=O)Oc1cccc2c1OC(C)(C)C2 [8(c), 2,3-Dihydro-2,2-dimethyl-7-benzofuranyl [(N-diethoxyphosphinyl) (N-ethyl)aminosulfenyl][methyl]carbamate] | 0 | 45 | 100 | 0 | 0 | 50 | 0 | 59 | 100 | 5 | 36 | 100 | 0 | 5 | 100 | 0 | 0 | 0 | 0 | 0 | mortality at 1250 ppm (twospotted spider mite [5]): 0%; mortality at 39 ppm (Mexican bean beetle): 67%; mortality at 156 ppm (Mexican bean beetle): 100%; mortality at 39 ppm (pea aphid [6]): 0%; mortality at 156 ppm (pea aphid [6]): 100%; mortality at 156 ppm (twospotted spider mite [7]): 0%; mortality at 1250 ppm (twospotted spider mite [7]): 26%; % Knockdown (house flies): 100%; mortality at 5000 µg/mL (house flies): 100%; mortality at 5000 µg/mL (German cockroaches [8]): 100%; % Knockdown (German cockroaches [8]): 100%; % Knockdown [9]: 0%; mortality at 0.001 mg [9]: 33%; mortality at 0.001 mg (German cockroaches [10]): 0%; % Knockdown (German cockroaches [10]): 0%
